Source: US5858978A, “Pharmaceutical compositions containing calcitonin gene-related peptide (CGRP) and use thereof to ameliorate hyperimmune mediated diseases and abnormal conditions” (Yale University, priority 1997, dated 1999)
Like-named read-outs stand apart in the source and are kept apart here. Values belong to the compound of their own block, whether it stands above or below them.

Experiments:
macrophages = conditions: cited from earlier work
peritoneal macrophages [1] = test: Generation of intracellular cAMP in peritoneal macrophages (radioimmunoassay); assay type: cell-based, rat; conditions: for cAMP accumulation in peritoneal macrophages: all time points examined
Experimental: (§1) Rat alveolar and peritoneal macrophages were obtained from 12 week old Fisher 344 rats (Charles River, Kingston, N.Y.). Alveolar macrophages were collected by tracheobronchial lavage as previously described (Vignery et al., J. Histochem Cytochem. , 1989). Peritoneal macrophages were collected from the same rats prior to the lung lavage. The collected cells were: (i) washed twice in Minimum Essential Medium with Earle's salts (MEME) supplemented with 2 mM L-glutamine and vitamins; (ii) plated in 6 well dishes at 10^7 cells/ml, 10^6 cells per well, in MEME containing 10% heat inactivated human serum (HS); (iii) incubated for 20 minutes at 37° C. in 5% CO2, 95% air to let the macrophages adhere; (iv) subsequently grown at 10^6 cells/ml of MEME containing 5% heat inactivated HS. Cells were cultured in FCS for the IL-6 bioassay. All tissue culture reagents were purchased from Gibco Laboratories, Grand Island, N.Y. The adherent cell populations were composed of 99% macrophages and a few occasional polymorphonuclear cells as determined by Wright stain.
(§2) For cAMP studies, cells were grown under the conditions described above but using either 24 or 96 well dishes. Each well contained either 2×10^5 or 5×10^4 cells grown in 800 or 200 μl, respectively. The cells were first washed with warm MEME and subsequently incubated at 37° C. in MEME supplemented with BSA (1 mg/ml) (Sigma Chemical, St. Louis, Mo.) either in the absence or presence of Salmon Calcitonin (sCT) (kindly provided by Dr. Orlowski, Rorer Central Research, Horsham, Pa.), rat calcitonin gene-related peptide (CGRP) (Bachem, Inc., Torrance, Calif.) and 3-isobutyl-1-methylxanthine (IBMX)(Sigma) for the indicated times. Incubations were terminated by aspirating the medium and adding 100 μl of 0.4% perchloric acid to each well. Perchloric acid extracts were neutralized with 1.5M KOH and stored at -20° C. These samples were acetylated and cAMP measured by radioimmunoassay using succinylated ^125 I-labeled cARP (Biomedical Technologies, Inc., Stoughton, Ma.). Results were expressed as fentomoles of CAMP per well. Experiments were performed in duplicates or triplicates and repeated at least 3 times.

[2] = system: giant cells (fused alveolar macrophages); test: Generation of intracellular cAMP in giant cells (fused alveolar macrophages), radioimmunoassay; assay type: cell-based, rat
Experimental: as §1, §2
When peritoneal macrophages from the same animals are grown in these conditions, they remain mononucleated and can therefore be used as a nonfusing control population. It was previously confirmed that giant cells differentiate in vitro by actual cell-cell fusion since DNA synthesis cannot be detected and that the total amount of DNA remains constant during culture in both alveolar and peritoneal macrophages. Therefore, the actual number of alveolar macrophages is decreased drastically by day 4 when each giant cell contains hundreds of nuclei. The important point is that the total number of nuclei remains constant so that we refer to giant cells and peritoneal macrophages as such or else as number of plated cells.

[3] = system: giant cells (fused alveolar macrophages); test: IL-1 release by giant cells (fused alveolar macrophages), IL-1 bioassay of supernatants; assay type: cell-based, rat; conditions: added to release medium on day 3, 24 hour release
Experimental: as §1
(§3) To estimate the release of IL-1 and IL-6 by peritoneal macrophages and fused alveolar macrophages, the cells were collected and cultured as described above. Prior to perform the release, the cells were washed twice with warm MEME and subsequently incubated for 24 hours in 1 ml of MEME supplemented with 5% of HS or FCS, with or without agonist. At the termination of the release, the supernatant were collected, spun at 400 g for 10 minutes, transferred to microfuge tubes and stored at -20° C. until assayed. Macrophages remained adherent and viable in all experiments as determined by DNA measurements and trypan blue exclusion.
IL-1 activity in the macrophage supernatants was measured according to Gillis and Mizel (Proc. Natl. Acad. Sci., USA, 1981, 78:1133-1137). LBRM-33 cells, clones 1A5 and 5A4 (ATCC, Rockville, Md.) were stimulated with either PHA (Gibco), rm IL-1β or log2 dilutions of the macrophage supernatants. […] After 24 hours, the cells were exposed to 0.5 μCi[^3 H]dThd (20 mCi/mmol, New England Nuclear) for an additional 4 hours after which the cultures were harvested onto glass fiber filter strips with the aid of a multiple automated sample harvester (MASH 11, Microbiological Associates, Bethesda, Md.) [^3 H]dThd incorporation was determined by direct counting.
When peritoneal macrophages from the same animals are grown in these conditions, they remain mononucleated and can therefore be used as a nonfusing control population. It was previously confirmed that giant cells differentiate in vitro by actual cell-cell fusion since DNA synthesis cannot be detected and that the total amount of DNA remains constant during culture in both alveolar and peritoneal macrophages. […]

[4] = system: peritoneal macrophages and giant cells; test: IL-6 release by peritoneal and fused alveolar macrophages (IL-6 bioassay, B13.29 subclone B9); assay type: cell-based, rat
Experimental: as §1, §3
Five thousand,B13.29 cells subclone B9 (donated by Dr. Thomas Kupper, Washington University of School of Medicine, Washington, Mo.) were cultured in the presence of a log2 dilution series of macrophage supernatants or standard dilutions of rmIL-6 according to Aarden, L. A. ( Eur. J. Immunol., 1987, 17:1411-1416). […]

peritoneal macrophages [5] = test: IL-1 release by peritoneal macrophages (IL-1 bioassay of supernatants); assay type: cell-based, rat; conditions: for IL-1 activity detected in peritoneal macrophage supernatants: added to release medium on day 3, 24 hour release
Experimental: as §1, §3
(§4) IL-1 activity in the macrophage supernatants was measured according to Gillis and Mizel (Proc. Natl. Acad. Sci., USA, 1981, 78:1133-1137). LBRM-33 cells, clones 1A5 and 5A4 (ATCC, Rockville, Md.) were stimulated with either PHA (Gibco), rm IL-1β or log2 dilutions of the macrophage supernatants. LBRM-33 lymphocyte supernatants were harvested from 24 hour cultures and subsequently tested for IL-2 activity using a standard microassay, Gillis et al. (J. Immunol., 1978, 120:2027-2032), based on the IL-2 dependent exponential proliferation of a murine cytotoxic T-cell line CTLL (ATCC, Rockville, Md.), Gillis and Smith (Nature (London), 1977, 268:154-156). CTLL cells were cultured in the presence of a log2 dilution series of putative IL-2 containing samples. After 24 hours, the cells were exposed to 0.5 μCi[^3 H]dThd (20 mCi/mmol, New England Nuclear) for an additional 4 hours after which the cultures were harvested onto glass fiber filter strips with the aid of a multiple automated sample harvester (MASH 11, Microbiological Associates, Bethesda, Md.) [^3 H]dThd incorporation was determined by direct counting.

LBRM-33 cells = test: IL-1 bioassay with CGRP added to IL-1 containing medium (LBRM-33 cells, CTLL readout); assay type: cell-based, murine
Experimental: as §4

CTLL cells = test: IL-2 dependent proliferation of CTLL cells treated directly; assay type: cell-based, murine; conditions: in the presence of IL-2
Experimental: as §4

[6] = system: chronic rheumatoid arthritis; test: Treatment of chronic rheumatoid arthritis in a human being; assay type: in vivo; conditions: I.M. administration of 0.5 mg every 24 hours until relief

Compound: calcitonin [CT]
- macrophage activation (macrophages): prevented macrophage activation

Compound: CC(C)Cn1c(=O)n(C)c(=O)c2[nH]cnc21 [IBMX, 3-isobutyl-1-methylxanthine]
- cAMP accumulation in peritoneal macrophages (peritoneal macrophages [1]): not able at any time point measured to induce a cAMP accumulation
- cAMP accumulation in giant cells ([2]; fused alveolar macrophages, any time point measured): not able at any time point measured to induce a cAMP accumulation

- EC50 ([2]; giant cells, sCT dose response, read-out: concentration for half maximal stimulation of cAMP accumulation): 2 nM
Compound: CC(C)C[C@H](NC(=O)[C@H](CCCCN)NC(=O)CNC(=O)[C@H](CC(C)C)NC(=O)[C@@H](NC(=O)[C@@H]1CSSC[C@H](N)C(=O)N[C@@H](CO)C(=O)N[C@@H](CC(N)=O)C(=O)N[C@@H](CC(C)C)C(=O)N[C@@H](CO)C(=O)N[C@@H]([C@@H](C)O)C(=O)N1)C(C)C)C(=O)N[C@@H](CO)C(=O)N[C@@H](CCC(N)=O)C(=O)N[C@@H](CCC(=O)O)C(=O)N[C@@H](CC(C)C)C(=O)N[C@@H](Cc1c[nH]cn1)C(=O)N[C@@H](CCCCN)C(=O)N[C@@H](CC(C)C)C(=O)N[C@@H](CCC(N)=O)C(=O)N[C@H](C(=O)N[C@@H](Cc1ccc(O)cc1)C(=O)N1CCC[C@H]1C(=O)N[C@@H](CCCNC(=N)N)C(=O)N[C@H](C(=O)N[C@@H](CC(N)=O)C(=O)N[C@H](C(=O)NCC(=O)N[C@@H](CO)C(=O)NCC(=O)N[C@H](C(=O)N1CCC[C@H]1C(N)=O)[C@@H](C)O)[C@@H](C)O)[C@@H](C)O)[C@@H](C)O [sCT, Salmon Calcitonin]
- cAMP accumulation in peritoneal macrophages (peritoneal macrophages [1]): failed to induce a response
- time of peak of cAMP accumulation after addition of the peptide ([2]; fused alveolar macrophages, absence of IBMX): 5 min
- lag time to cAMP accumulation ([2]; fused alveolar macrophages, with 10 μM IBMX): 2 min
- time at which cAMP returned to basal level ([2]; giant cells, absence of IBMX): 15 min
- time at which cAMP returned to basal level ([2]; giant cells, presence of IBMX): 30 min
- half maximal cAMP accumulation ([2]; giant cells, sCT dose response): 50 fmoles per 6.4×10^4 plated cells
- IL-1 activity detected in giant cell supernatants [3]: reduced significantly
- IL-6 activity level in macrophage supernatants [4]: neither sCT nor CGRP treatment of the cells modified this level

Compound: C=C[C@@]1(C)CC(=O)[C@]2(O)[C@@]3(C)[C@@H](O)CCC(C)(C)[C@@H]3[C@H](O)[C@H](OC(C)=O)[C@@]2(C)O1 [forskolin]
- IL-1 activity detected in giant cell supernatants [3]: as effective as CGRP in blocking the secretion of IL-1
- IL-1 activity detected in peritoneal macrophage supernatants (peritoneal macrophages [5]): as effective as CGRP in blocking the secretion of IL-1

Compound: C=C1/C(=C\C=C2/CCC[C@]3(C)[C@@H]([C@H](C)CCCC(C)(C)O)CC[C@@H]23)C[C@@H](O)C[C@@H]1O [1,25(OH)2 -vitamin D3]
- IL-1 activity detected in giant cell supernatants [3]: fail to respond
- IL-1 activity detected in peritoneal macrophage supernatants (peritoneal macrophages [5]): stimulated the proliferation of CTLL cells, and probably IL-1 release
- IL-6 activity level in macrophage supernatants [4]: neither CGRP nor 1,25(OH)2 -vitamin D3 appear to significantly alter this process

- EC50 (peritoneal macrophages [1]; peritoneal macrophages, 2 minutes incubation in the presence of IBMX, read-out: concentration giving half maximal concentration of cAMP): 2 nM
- EC50 ([2]; fused alveolar macrophages, 2 minutes incubation in the presence of IBMX, read-out: concentration giving half maximal concentration of cAMP): 2 nM
Compound: Rat Calcitonin Gene-Related Peptide [CGRP]
- half maximal concentration of cAMP (peritoneal macrophages [1]; peritoneal macrophages, 2 minutes incubation in the presence of IBMX): 80 fmoles per 5×10^4 plated cells
- half maximal concentration of cAMP ([2]; fused alveolar macrophages, 2 minutes incubation in the presence of IBMX): 300 fmoles per 5×10^4 plated cells
- cAMP accumulation compared with CT ([2]; macrophages, comparison CGRP vs CT): larger accumulation of cAMP in macrophages than CT
- ability of macrophages to act as APC (macrophages): profoundly inhibit
- ability of macrophages to produce H2O2 in response to IFN (macrophages): profoundly inhibit
- IL-1 activity detected in giant cell supernatants [3]: prevented the release of IL-1 by both cell types
- IL-1 bioactivity in supernatants of vitamin D3 stimulated peritoneal macrophages (peritoneal macrophages [5]; 1,25(OH)2-vitamin D3 stimulated peritoneal macrophages): reduce significantly
- IL-1 activity detected in peritoneal macrophage supernatants (peritoneal macrophages [5]): prevented the release of IL-1 by both cell types
- proliferative response of CTLL cytotoxic T cells in the IL-1 bioassay (LBRM-33 cells): prevents the proliferative response
- proliferation of CTLL cells (CTLL cells): did not prevent significantly their proliferation
- IL-6 activity level in macrophage supernatants [4]: neither sCT nor CGRP treatment of the cells modified this level
- symptoms of the disease, e.g. pain and swelling of the affected joints [6]: amelioration of the symptoms of the disease
